Source: patent US9403802B2, “Heterocyclic compound and use therefor” (Takeda Pharmaceutical Company Limited, priority 2012, dated 2016)
Read-outs that look alike come from different tables or passages of the source.

Columns and labels:
[1] = molecular target: T1, human M1 receptor (hCHRM1) (Homo sapiens, UniProt P11229); experiment: Measurement of cholinergic muscarinic M1 receptor positive allosteric modulator (M1PAM) activity, calcium fluorescence (FLIPRtetra); assay type: cell-based; conditions: for activity (%) at 10 μM: test compound 10 μM with acetylcholine at EC20 (final 0.6 nM), 100% = acetylcholine 1 μM, 0% = DMSO
T1 construct: expressed in transfected cells; host or cells: CHO-K1
T1 sequence (P11229 1-460): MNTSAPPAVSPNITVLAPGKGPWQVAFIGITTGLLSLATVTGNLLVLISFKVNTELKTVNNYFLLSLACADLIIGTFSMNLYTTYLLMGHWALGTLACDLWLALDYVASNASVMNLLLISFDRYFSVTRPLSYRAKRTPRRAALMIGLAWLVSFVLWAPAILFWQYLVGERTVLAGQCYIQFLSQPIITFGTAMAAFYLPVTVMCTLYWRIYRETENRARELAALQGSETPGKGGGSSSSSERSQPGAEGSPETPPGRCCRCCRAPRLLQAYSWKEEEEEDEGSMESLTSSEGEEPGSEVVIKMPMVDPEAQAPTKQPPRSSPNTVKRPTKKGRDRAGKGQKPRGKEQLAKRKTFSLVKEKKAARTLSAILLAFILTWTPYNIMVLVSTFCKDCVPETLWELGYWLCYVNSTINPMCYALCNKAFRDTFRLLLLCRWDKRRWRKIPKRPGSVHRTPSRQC
Procedure: The activity of a test compound in the presence of acetylcholine at EC20 concentration (final concentration 0.6 nM), which affords an action corresponding to 20% of the maximum activity, was measured as M1PAM activity. The method is as follows. CHO-K1 cells forcibly expressing a human M1 receptor (hCHRM1) were plated on a 384-well black clear bottom plate (BD Falcon) at 5,000 cells/well, and cultured in an incubator at 37° C., 5% CO2 for 1 day. The medium in the cell plate was removed, and assay buffer A (Recording medium (DOJINDO LABORATORIES), 0.1% bovine serum albumin (BSA) (Wako Pure Chemical Industries, Ltd.), 2.5 μg/mL Fluo-4 AM (DOJINDO LABORATORIES), 0.08% Pluronic F127 (DOJINDO LABORATORIES), 1.25 mM probenecid (DOJINDO LABORATORIES)) containing a calcium indicator was added at 30 μL/well. The cells were left standing in the incubator at 37° C., 5% CO2 for 30 min, and further left standing at room temperature for 30 min. A test compound prepared by diluting with assay buffer B (HBSS (Invitrogen), 20 mM HEPES (Invitrogen), 0.1% BSA) containing 2.4 nM acetylcholine was added at 10 μL/well, and the fluorescence was measured by FLIPRtetra (Molecular Devices) for 1 min every 1 second. With the definition that the amount of change in the fluorescence on addition of acetylcholine (final concentration 1 μM) is 100% and that on addition of DMSO instead of a test compound is 0%, the activity (%) of the test compound and the inflection point in the concentration-dependent curve of the test compound were calculated as IP values.

[2] = Central migration (Kp value) measurement test; assay type: in vivo; conditions: male, Jcl ICR, mouse, brain/plasma, mice, ratio of intracerebral (μg/g) to plasma (μg/mL) concentration; for Kp at 1 h: po, 1 mg/kg, 1 mg/10 mL/kg
Procedure: A. Compounds of Examples 6 and 10 (Intravenous Administration: i.v.) […]
animal: male Jcl ICR mice 7-week-old n=3 […]
administration conditions: intravenous administration 0.20 mg/l mL/kg (4 compounds/cassette administration) administration medium: N,N-dimethylacetamide (DMA)/1,3-Butanediol (1:1) sample: plasma, brain (homogenate was prepared by adding 4-fold amount of saline) plasma sampling time: 0.25 hr brain sampling time: 0.25 hr […]
animal: male Jcl ICR mice 8-week-old n=3 […]
administration medium: DMA/1,3-Butanediol (1:1) […]
plasma sampling time: 0.5 hr brain sampling time: 0.5 hr […]
column: Shimadzu Shim-pack XR-ODS (2.2 μm, 2.0×30 mm) mobile phase A: 10 mmol/L ammonium formate/formic acid (100:0.2, v/v) mobile phase B: acetonitrile/formic acid (100:0.2, v/v) […]
column temperature: 50° C. sample injection volume: 1 μL (Example 6), 2 μL (Example 10) plasma pre-treatment conditions: A standard solution dissolution solvent (DMSO) or a standard solution (5 μL) was added to a sample (50 μL). Acetonitrile (150 μL) containing the internal standard substance was added, and the mixture was vigorously stirred and centrifuged at 5250 rpm. A dilution solvent (160 μL) was added to the centrifuged supernatant (60 μL). The solution (40 μL) was taken, and the dilution solvent (160 μL) was added to give a sample solution for compound plasma concentration measurement (mobile phase A:mobile phase B=7:3 (v/v) was used as the dilution solvent). brain pre-treatment conditions: The standard solution dissolution solvent (DMSO) or standard solution (5 μL) was added to a sample (50 μL). Acetonitrile (150 μL) containing the internal standard substance was added, and the mixture was vigorously stirred, and centrifuged at 5250 rpm. A dilution solvent (160 μL) was added to the centrifuged supernatant (60 μL). The solution (40 μL) was taken, and the dilution solvent (160 μL) was added to give a sample solution for intracerebral compound concentration measurement (mobile phase A:mobile phase B=7:3 (v/v) was used as the dilution solvent). B. Compounds of Examples 92 and 94 (Oral Administration: p.o.) animal: male Jcl ICR mice 10-week-old n=3 feeding: nonfasting administration conditions: oral administration 1 mg/10 mL/kg (5 compounds/cassette administration) administration medium: 0.5% methylcellulose solution sample: plasma, brain (homogenate was prepared by adding 4-fold amount of saline) plasma sampling time: 1 hr brain sampling time: 1 hr HPLC Analysis Conditions column: Shimadzu Shim-pack XR-ODS (2.2 μm, 2.0×30 mm) mobile phase A: 10 mmol/L ammonium formate/formic acid (100:0.2, v/v) mobile phase B: acetonitrile/formic acid (100:0.2, v/v) flow rate: 0.7 mL/min. column temperature: 50° C. sample injection volume: 1 μL […]

[3] = inflection point of the concentration-dependent curve, with acetylcholine at EC20 (final 0.6 nM), CHO-K1 cells expressing hCHRM1, read-out: IP value

| EC50 [1, 3] | Compound | EC50 [1] | activity (%) at 10 μM ([1]; CHO-K1 cells expressing hCHRM1) | Kp at 0.25 h ([2]; iv, 0.2 mg/kg, 0.2 mg/1 mL/kg, sampling time 0.25 hr) | Kp at 0.5 h ([2]; iv, 0.2 mg/kg, 0.2 mg/1 mL/kg, sampling time 0.5 hr) | Kp at 1 h [2] |
| --- | --- | --- | --- | --- | --- | --- |
|  | COc1ccc(Cn2cc(C(=O)N[C@H]3CCOC[C@@H]3O)c(=O)c3c(F)ccc(F)c32)cc1 (racemic) [Example 6, 1,5-anhydro-2,3-dideoxy-3-({[5,8-difluoro-1-(4-methoxybenzyl)-4-oxo-1,4-dihydroquinolin-3-yl]carbonyl}amino)-DL-threo-pentitol] | 16 nM | 98% | 0.1 |  |  |
|  | COc1ccc(Cn2cc(C(=O)N[C@H]3CCCC[C@@H]3O)c(=O)c3c(F)ccc(F)c32)cc1 (racemic) [Example 10, 5,8-difluoro-N-[(1,2-trans)-2-hydroxycyclohexyl]-1-(4-methoxybenzyl)-4-oxo-1,4-dihydroquinoline-3-carboxamide] | 55 nM | 103% |  | 0.33 |  |
|  | O=C(N[C@H]1CCC[C@@H]1O)c1cn(Cc2ccc(-n3cccn3)cc2)c2c(F)cccc2c1=O (racemic) [Example 92, 8-fluoro-N-[(1,2-trans)-2-hydroxycyclopentyl]-4-oxo-1-[4-(1H-pyrazol-1-yl)benzyl]-1,4-dihydroquinoline-3-carboxamide] | 55 nM | 104% |  |  | 0.16 |
|  | Cc1nn(C)cc1-c1ccc(Cn2cc(C(=O)N[C@H]3CCC[C@@H]3O)c(=O)c3ccccc32)cc1 (racemic) [Example 94, 1-[4-(1,3-dimethyl-1H-pyrazol-4-yl)benzyl]-N-[(1,2-trans)-2-hydroxycyclopentyl]-4-oxo-1,4-dihydroquinoline-3-carboxamide] | 8.5 nM | 95% |  |  | 0.03 |
| 68 nM | COc1ccc(Cn2nc(C(=O)N[C@H]3CCCC[C@@H]3O)c(=O)c3ccccc32)cc1 [Example 51, N-[(1S,2S)-2-hydroxycyclohexyl]-1-(4-methoxybenzyl)-4-oxo-1,4-dihydrocinnoline-3-carboxamide] |  | 97% |  |  |  |
| 1900 nM | COc1ccc(Cn2nc(C(=O)N[C@@H]3CCCC[C@H]3O)c(=O)c3ccccc32)cc1 [Example 52, N-[(1R,2R)-2-hydroxycyclohexyl]-1-(4-methoxybenzyl)-4-oxo-1,4-dihydrocinnoline-3-carboxamide] |  | 87% |  |  |  |
| 63 nM | NC(=O)c1ccc(Cn2nc(C(N)=O)c(=O)c3ccccc32)cc1 [Example 73, 1-(4-carbamoylbenzyl)-4-oxo-1,4-dihydrocinnoline-3-carboxamide] |  | 96% |  |  |  |
|  | NC(=O)c1ccc(Cn2cc(C(=O)N[C@H]3CCCC[C@@H]3O)c(=O)c3ccccc32)cc1 [Example 78, 1-(4-carbamoylbenzyl)-N-[(1S,2S)-2-hydroxycyclohexyl]-4-oxo-1,4-dihydroquinoline-3-carboxamide] | 2.2 nM | 86% |  |  |  |
